Assay results taken from ChEMBL document CHEMBL2029299, “Discovery of novel EGFR tyrosine kinase inhibitors by structure-based virtual screening” (Bioorg Med Chem Lett, 2012).

What was measured:
NIH3T3 = experiment: Antiproliferative activity against mouse NIH/3T3 cells after 72 hrs by MTT assay; conditions: NIH3T3, 72 h
A-431 = experiment: Antiproliferative activity against human A431 cells overexpressing EGFR after 72 hrs by MTT assay; conditions: A-431, 72 h
[1] = target: Epidermal growth factor receptor (Homo sapiens, UniProt P00533); experiment: Inhibition of EGFR after 50 mins by HTRF assay
Chain of Epidermal growth factor receptor (P00533 whole entry): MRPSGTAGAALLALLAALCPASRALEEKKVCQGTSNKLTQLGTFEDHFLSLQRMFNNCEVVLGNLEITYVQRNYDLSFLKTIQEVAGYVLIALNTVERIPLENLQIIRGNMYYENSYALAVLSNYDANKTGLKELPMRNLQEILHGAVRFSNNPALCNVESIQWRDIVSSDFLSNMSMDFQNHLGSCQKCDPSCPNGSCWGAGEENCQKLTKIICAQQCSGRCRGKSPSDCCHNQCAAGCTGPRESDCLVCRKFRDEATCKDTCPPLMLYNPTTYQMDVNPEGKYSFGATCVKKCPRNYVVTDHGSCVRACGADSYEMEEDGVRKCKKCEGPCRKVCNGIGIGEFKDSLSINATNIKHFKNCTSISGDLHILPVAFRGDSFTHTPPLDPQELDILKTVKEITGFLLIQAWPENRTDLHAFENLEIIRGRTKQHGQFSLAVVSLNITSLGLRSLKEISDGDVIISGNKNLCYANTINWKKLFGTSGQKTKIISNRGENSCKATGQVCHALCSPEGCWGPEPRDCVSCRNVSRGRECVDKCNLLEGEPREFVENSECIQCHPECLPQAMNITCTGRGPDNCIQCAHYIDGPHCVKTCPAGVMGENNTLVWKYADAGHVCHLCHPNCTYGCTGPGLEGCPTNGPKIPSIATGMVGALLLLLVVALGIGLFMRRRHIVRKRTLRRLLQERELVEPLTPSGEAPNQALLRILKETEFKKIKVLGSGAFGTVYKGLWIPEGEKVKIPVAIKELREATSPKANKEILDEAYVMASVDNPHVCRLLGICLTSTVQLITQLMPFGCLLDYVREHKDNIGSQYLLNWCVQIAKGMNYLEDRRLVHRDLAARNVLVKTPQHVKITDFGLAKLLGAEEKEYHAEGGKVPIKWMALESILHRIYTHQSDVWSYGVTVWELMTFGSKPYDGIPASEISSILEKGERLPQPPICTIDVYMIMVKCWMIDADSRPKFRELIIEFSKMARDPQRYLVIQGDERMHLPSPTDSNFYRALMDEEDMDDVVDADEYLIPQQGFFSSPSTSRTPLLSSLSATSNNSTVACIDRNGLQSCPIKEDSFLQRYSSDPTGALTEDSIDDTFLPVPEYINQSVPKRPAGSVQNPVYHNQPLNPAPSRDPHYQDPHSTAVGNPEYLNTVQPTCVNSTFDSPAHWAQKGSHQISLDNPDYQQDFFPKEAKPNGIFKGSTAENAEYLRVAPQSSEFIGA

SMILES	IC50 (A-431) [µM]	IC50 [1] [µM]	IC50 (NIH3T3) [µM]
CS(=O)(=O)CCNCc1ccc(-c2ccc3ncnc(Nc4ccc(OCc5cccc(F)c5)c(Cl)c4)c3c2)o1 [LAPATINIB]	–	–	4.3
Cc1ccc(N2NC(=O)/C(=C\c3ccc(-c4cc([N+](=O)[O-])ccc4O)o3)C2=O)cc1C	–	–	37.2
Cc1ccc(N2NC(=O)/C(=C/c3ccc(OCc4ccccc4)cc3)C2=O)cc1Cl	14	8.6	41.3
Nc1nn2c(=O)cc(-c3ccccc3)[nH]c2c1/N=N/c1ccc2c(c1)OCO2	16.7	5.3	46
CCOc1ccc(-c2cc(C(F)(F)F)c(C#N)c(SCC(=O)NCC(=O)O)n2)cc1	> 50	8.4	> 50
Cc1nn(C)cc1C(=O)Nc1ccn(Cc2c(F)cccc2Cl)n1	–	–	> 50
C=C(N/N=C/c1cn[nH]c1-c1ccccc1)[C@H](C)Cc1ccccc1	–	–	> 50

Now from value to compound, other results behind:

IC50 (A-431) [µM]	IC50 [1] [µM]	SMILES	IC50 (NIH3T3) [µM]
18.9	5.6	O=C1NN(c2ccc(F)cc2)C(=O)/C1=C\c1cccc(OCc2ccccc2F)c1	23.1
30	23.1	Cc1cccc(N2NC(=O)/C(=C/c3ccc(-c4ccccc4F)o3)C2=O)c1	> 50
26.8	48.6	O=C(Cc1ccc(F)cc1)Nc1cc(SC[C@@H](O)CO)cc([N+](=O)[O-])c1	> 50
23.2	3.5	O=C1NN(c2ccc(F)c(Cl)c2)C(=O)/C1=C\c1cccc(OC(=O)c2cccs2)c1	28.2
> 50	83.9	Cn1c(NCc2cccc(C(F)(F)F)c2)cc(=O)n(C)c1=O	> 50
39.6	9.7	O=S(=O)(c1ccc(/N=C/c2cc(Br)ccc2O)cc1)N1CCCCC1	> 50
19.4	6.8	O=C(Cn1c(-c2ccccc2)cc(=O)n2ncnc12)NNC(=S)Nc1ccccc1	20
